Reference: ChEMBL document CHEMBL5303304, “EUbOPEN Chemogenomics Library - IncuCyte” (2023)

What was measured:
Type in all cases: toxicity, cell-based
HEK-293T = assay: Incucyte cell viability with HEK293T; details: human, 10 µM, compound concentration 10 uM
Fibroblast = assay: Incucyte cell viability with human fibroblast; details: 10 µM, compound concentration 10 uM
U2OS = assay: Incucyte cell viability with U2OS; details: human, 10 µM, compound concentration 10 uM
Further: unitless GR value; below 1 slowed growth and below 0 cell loss.

Row | SMILES | Growth Rate (HEK-293T; 0 h, replicate number 1) | Growth Rate (HEK-293T; 12 h, replicate number 2) | Growth Rate (HEK-293T; 18 h, replicate number 1) | Growth Rate (HEK-293T; 18 h, replicate number 2) | Growth Rate (HEK-293T; 24 h, replicate number 1) | Growth Rate (HEK-293T; 24 h, replicate number 2) | Growth Rate (Fibroblast; 0 h, replicate number 1) | Growth Rate (Fibroblast; 6 h, replicate number 1) | Growth Rate (Fibroblast; 6 h, replicate number 2) | Growth Rate (Fibroblast; 12 h, replicate number 1) | Growth Rate (Fibroblast; 12 h, replicate number 2) | Growth Rate (Fibroblast; 18 h, replicate number 1) | Growth Rate (Fibroblast; 18 h, replicate number 2) | Growth Rate (Fibroblast; 24 h, replicate number 1) | Growth Rate (Fibroblast; 24 h, replicate number 2) | Growth Rate (U2OS; 6 h, replicate number 1) | Growth Rate (U2OS; 0 h, replicate number 1) | Growth Rate (U2OS; 12 h, replicate number 1) | Growth Rate (U2OS; 24 h, replicate number 1) | Growth Rate (U2OS; 12 h, replicate number 2) | further results
1 | CN1C(=O)Cc2ccc(-c3ccc(C[C@@H](C#N)NC(=O)[C@H]4N[C@@H]5CC[C@H]4C5)c(F)c3)cc21 | 0.62 | 0.82 | 0.94 | 0.88 | 0.87 | 0.95 | -1 | 0.56 | -0.72 | 0.65 | 0.43 | 0.72 | 0.5 | 0.86 | 0.85 | 0.49 | – | – | – | – | Growth Rate (HEK-293T; 12 h, replicate number 1): 0.89
2 | COc1cc(-c2cn(C)c(=O)c3cnccc23)c(OC)cc1CN(C)C | 0.44 | 0.4 | 0.77 | 0.68 | 0.68 | 0.77 | – | 0.79 | 0.69 | 0.84 | 0.23 | 0.8 | 0.53 | 0.8 | 0.5 | 0.38 | 0.29 | 0.8 | 0.97 | – | Growth Rate (HEK-293T; 6 h, replicate number 2): 0.24
3 | COc1cc(-c2cn(C)c(=O)c3cnccc23)cc(OC)c1CN(C)C | 0.56 | – | 0.85 | 0.89 | 0.92 | – | 0.17 | 0.2 | -0.34 | 0.48 | 0.15 | 0.56 | 0.6 | 0.58 | 0.85 | 0.87 | 0.83 | 0.86 | 0.97 | 0.85 | Growth Rate (HEK-293T; 6 h, replicate number 1): 0.78; Growth Rate (HEK-293T; 6 h, replicate number 2): 0.89; Growth Rate (U2OS; 6 h, replicate number 2): 0.61
4 | CC(C)(O)CNC(=O)N1C(=O)N(c2cccc(C(F)(F)F)c2)C2=C(C(=O)CC2)[C@@H]1c1ccc(C#N)cc1 | 0.26 | 0.97 | – | – | – | – | – | 0.57 | – | – | – | – | 0.94 | – | – | 0.14 | 0.14 | 0.58 | 0.76 | – | Growth Rate (U2OS; 6 h, replicate number 2): 0.9; Growth Rate (U2OS; 18 h, replicate number 1): 0.65
5 | CSc1nc2c(c(=O)n(C)c(=O)n2C)n1C | 0.12 | 0.78 | – | 1 | – | – | -1 | 0.03 | -0.57 | 0.58 | – | 0.87 | – | 0.71 | 0.92 | 0.84 | 0.57 | – | – | 0.74 | Growth Rate (HEK-293T; 6 h, replicate number 2): -0.14; Growth Rate (Fibroblast; 0 h, replicate number 2): -0.52; Growth Rate (U2OS; 6 h, replicate number 2): 0.49; Growth Rate (U2OS; 18 h, replicate number 2): 0.86; Growth Rate (U2OS; 24 h, replicate number 2): 0.97
6 | COCCOCn1c(S(C)(=O)=O)nc2c1c(=O)n(C)c(=O)n2C | 0.35 | – | 0.74 | 0.92 | 0.86 | 0.9 | -1 | -0.48 | -0.97 | 0 | 0.03 | 0.05 | 0.24 | 0.45 | 0.7 | 0.11 | 0.81 | 0.55 | 0.76 | – | Growth Rate (HEK-293T; 0 h, replicate number 2): 0.7; Growth Rate (U2OS; 18 h, replicate number 1): 0.93
7 | Cc1cc(CN)cc(C)c1-c1ncn(C)c1-c1cncn1C.Cl | -0.38 | – | 0.98 | – | – | – | -1 | 0.96 | -0.33 | – | 0.59 | – | 0.77 | – | 0.86 | – | – | – | – | 0.69 | Growth Rate (HEK-293T; 0 h, replicate number 2): 0.26; Growth Rate (U2OS; 18 h, replicate number 2): 0.99
8 | CC1CCN(C(=O)[C@H](CCn2cccc2C#N)NS(=O)(=O)c2cccc3[nH]ccc23)CC1 | -0.16 | – | – | – | – | – | – | – | – | – | 0.9 | – | – | – | 0.84 | 0.98 | 0.73 | 0.91 | 0.98 | 0.81 | Growth Rate (HEK-293T; 0 h, replicate number 2): 0.25; Growth Rate (HEK-293T; 12 h, replicate number 1): 0.92; Growth Rate (U2OS; 0 h, replicate number 2): 0.6; Growth Rate (U2OS; 18 h, replicate number 1): 0.99; Growth Rate (U2OS; 18 h, replicate number 2): 0.91; Growth Rate (U2OS; 24 h, replicate number 2): 0.97
9 | CC(C)c1nc2c(c3c1[C@@H](c1ccc(C(F)(F)F)cc1)OC31CCOCC1)[C@@H](O)CC(C)(C)C2.Cl | 0.12 | 0.61 | 0.63 | 0.97 | 0.78 | 0.8 | -1 | -0.53 | – | -0.05 | 0.76 | 0.15 | – | 0.49 | 0.96 | 0.88 | – | – | – | 0.78 | Growth Rate (HEK-293T; 6 h, replicate number 2): 0.11; Growth Rate (HEK-293T; 12 h, replicate number 1): 0.73; Growth Rate (U2OS; 18 h, replicate number 2): 0.78; Growth Rate (U2OS; 24 h, replicate number 2): 0.87
10 | CCn1c(CNC(=O)c2nc(Cl)cnc2N)[n+](CC)c2ccc(C(=O)N(C)CCN(C)C)cc21.[Cl-] | 0.65 | 0.57 | – | 0.77 | – | 0.84 | – | – | -0.24 | – | 0.59 | – | 0.7 | – | 0.96 | 0.28 | 0.81 | 0.84 | 0.84 | – | Growth Rate (HEK-293T; 0 h, replicate number 2): 0.44; Growth Rate (HEK-293T; 6 h, replicate number 2): 0.55; Growth Rate (Fibroblast; 0 h, replicate number 2): -0.38; Growth Rate (U2OS; 6 h, replicate number 2): 0.97
11 | N=C(N)NCCC[C@H](NC(=O)C(c1ccccc1)c1ccccc1)C(=O)NCc1ccc(CNC(N)=O)cc1.O=C(O)C(F)(F)F | 0.26 | – | – | – | – | – | -1 | – | -0.57 | – | 0.52 | – | 0.75 | 0.9 | 0.58 | 0.97 | – | – | 0.96 | 0.88 | –
12 | N=C(N)NCCC[C@@H](NC(=O)C(c1ccccc1)c1ccccc1)C(=O)NCc1ccc(CNC(N)=O)cc1.O=C(O)C(F)(F)F | 0.56 | 0.76 | – | 0.96 | – | 0.9 | -1 | 0.82 | – | – | 0.86 | – | 0.94 | – | 0.91 | 0.44 | 0.07 | 0.7 | 0.86 | 0.87 | Growth Rate (Fibroblast; 0 h, replicate number 2): 0.49; Growth Rate (U2OS; 18 h, replicate number 1): 0.92; Growth Rate (U2OS; 18 h, replicate number 2): 0.99
